# Results taken from patent publication US20100008912A1, “COMBINATION DRUG” (TAKEDA PHARMACEUTICAL COMPANY LIMITED, priority 2006, published 2010).
# Structures can show the parent of a compound that is named as a salt.
# Legend:
# N87 (gastric cancer) = test: Cell growth determination test of combined use, Combination Index, N87; assay type: cell-based, human; details: combined use with compound A
# Protocol: (§1) The cell density of the cell suspension was measured by cell counter Sysmex CDA500, and the cell density was adjusted to 4×10^4 cell/mL using the aforementioned medium, which was dispensed to each well of a 96 well multi-well culture plate (Nunc) by 0.15 mL and cultured overnight at 37° C., 5% CO2. […] After culturing at 37° C., 5% CO2 for 5 days, the cells of each well were fixed, stained and subjected to colorimetry. The effect of the combined use was determined by the method of Chou T C, Talalay P Adv.
# (§2) The effect of combined use was determined by the method of Chou T C, Talalay P Adv.
# OE19 (esophageal cancer) = test: Cell growth determination test of combined use, Combination Index, OE19; assay type: cell-based, human; details: combined use with compound A
# Protocol: as §1, §2
# [1] = test system: Human breast cancer cell line BT-474; test: Cell growth test of combined use, Combination Index by the method of Chou and Talalay, BT-474; assay type: cell-based; details: for Combination Index at the time of inhibition of cell growth by 50%: combined use with compound A, BT-474
# Protocol: as §1, §2
# [2] = test system: Human breast cancer cell line BT-474 (HER2 high expressing); test: Tumor growth of BT-474 transplanted subcutaneously in nude mouse, combined use; assay type: in vivo; details: compound A 10 mg/mL, 10 mL/kg orally twice a day, 14 days, 10 mL/kg intraperitoneally twice a week
# Protocol: (§3) Human breast cancer cell line BT-474 (ATCC (American Type Culture Collection) catalog No. HTB-20, Lasfargues E Y, In Vitro 15:723-729 (1979)), which is a passage cultured HER2 high expressing cell, was treated with trypsin and suspended in RPMI-1640 medium (GibcoInvitrogen) containing 10% bovine fetus serum (GibcoInvitrogen).
# as §3
# [3] = test system: HER2 high expressing clinical gastric cancer cell line (4-1ST); test: Tumor growth of 4-1ST tumor pieces transplanted subcutaneously in nude mouse, combined use; assay type: in vivo
# Source text: A tumor mass of 4-1ST (obtained from Central Institute for Experimental Animals), which was HER2 high expressing clinical gastric cancer cell line transplanted and passaged in vivo in nude mouse, was recovered from nude mouse, aseptically cut into 2 to 3 mm square pieces. The above-mentioned tumor piece was fixed on a trocar transplantation tool and transplanted subcutaneously into the abdomen of nude mouse. As a nude mouse for transplantation, BALB/cAJc l-nu/nu, female, 5-week-old mice were purchased from CLEA Japan, Inc. After 1 week of acclimation on receipt of the mice, the tumor piece was transplanted subcutaneously into the abdomen of 6-week-old mouse. The tumor volume was measured over time from 2 weeks after the transplantation and the mouse with a tumor volume of from 200 to 300 mm^3 was used for the test. Compound A was adjusted to a concentration of 10 mg/mL with 0.5% aqueous methylcellulose solution, and orally administered to mouse at a liquid amount of the above-mentioned compound A suspension of 10 mL/kg body weight. Compound A was administered twice a day in the morning and in the afternoon (administration interval was 7 hr or more) for 14 consecutive days. As for trastuzumab (Herceptin (trademark) (Genentech, Inc.) catalog No. NDC 50242-134-68), undiluted solution (21 mg/mL) was diluted to 1 mg/mL with saline, and intraperitoneally administered at a liquid amount of 10 mL/kg body weight. Trastuzumab was administered twice a week, totaling 4 times. The tumor volume was measured every 2 or 3 days, and the final tumor volume was measured on the next day of the completion of the 14 day administration and the effect of combined use was determined (FIG. 3). […] As for cetuximab (Erbitux (trademark)), undiluted solution (2 mg/mL) was intraperitoneally administered at a liquid amount of 10 mL/kg body weight. […] The tumor volume was measured every 2 or 3 days, and the final tumor volume was measured on the next day of the completion of the 14 day administration and the effect of combined use was determined (FIG. 4).
# [4] = test system: Human breast cancer cell line BT-474; test: Cell growth inhibitory assay, SRB staining method, BT-474; assay type: cell-based; details: in vitro; serially diluted; 5 days; BT-474 (FIG. 7)
# Protocol: (§4) Human breast cancer cell line BT-474 was treated with trypsin and suspended in RPMI 1640 medium (Invitrogen) containing 10% bovine fetus serum (Invitrogen). BT-474 cell was plated on a 96 well plate at 6000 cells/100 μL/well. The next day, fulvestrant alone, compound A alone or a mixture of fulvestrant and compound A was serially diluted and added. After addition of the compound, the mixture was stood in a CO2 incubator for 5 days. 50 μL of 25% glutaraldehyde solution (Wako) was added to 200 μL of medium and the mixture was left standing at room temperature for 15 min. The plate was washed with PBS once, 200 μL of PBS was added, 25 μL of 50% trichloroacetic acid was added, and the mixture was left standing at 4° C. for 1 hr or longer. The plate was washed 5 times with tap water, redundant water was removed by slamming the plate against Kimtowel. 50 μL of 0.4% (w/v) Sulforhodamine B (SRB, Sigma)-containing 1% (v/v) acetic acid solution was added to each well and, 15 min later, the plate was washed 3 times with 1% acetic acid solution (v/v). The plate was thoroughly dried, 10 mM Tris solution was added, and the mixture was stirred well with a plate shaker, and the absorbance at 550 nm was measured (Bio-Rad, Benchmark Plus). In calculation, a control free of a drug was 100% (FIG. 7).
# [5] = test system: Human breast cancer cell line MCF-7; test: Cell growth inhibitory assay, SRB staining method, MCF-7; assay type: cell-based; details: in vitro; serially diluted; 4 days; MCF-7 (FIG. 8)
# Protocol: Human breast cancer cell line MCF-7 cell was plated on a 96 well plate at 3000 cells/100 μL/well. The next day, fulvestrant alone, compound A alone or a mixture of fulvestrant and compound A was serially diluted and added.
# as §4, with “After” for “Human breast cancer cell line BT-474 was treated with trypsin and suspended in RPMI 1640 medium (Invitrogen) containing 10% bovine fetus serum (Invitrogen). BT-474 cell was plated on a 96 well plate at 6000 cells/100 μL/well. The next day, fulvestrant alone, compound A alone or a mixture of fulvestrant and compound A was serially diluted and added. After”, “for 4” for “for 5”, “(FIG. 8).” for “(FIG. 7).”
# [6] = test system: HER family genes (EGFR, HER2, HER3, HER4) in MCF-7 cell; test: HER family gene expression (TaqMan PCR) in MCF-7; assay type: cell-based, human
# Protocol: MCF-7 cell was plated on a 6 well plate at 8.6×10^4 cells/well. The next day, the cells were treated with compound A (1 μM), fulvestrant (1 μM) or compound A (1 μM)+fulvestrant (1 μM). After 120 hr, total RNA was extracted using an RNeasy mini kit (Qiagen). 1 μg of total RNA was subjected to a Reverse Transcriptase reaction using a high capacity cDNA archive kit (P/N 4322171, Applied Biosystems) to give cDNA. The obtained cDNA was diluted 50-fold with Nuclease Free water (Promega), and 5 μL thereof was used for PCR reaction. 2×TaqMan Universal PCR Master Mix (12.5 μL) and 20×Probe & Primer (TaqMan Gene Expression Assays, 1.25 μL) and Nuclease Free water (6.25 μL) were blended. PCR reaction and analysis were performed using GeneAmp 7700 (Applied Biosystems). The reaction conditions were 50° C.×2 min, 95° C.×10 min, followed by 95° C.×15 sec, 60° C.×1 min, which cycle was repeated 40 times. For data analysis, calculation was made with GAPDH as an internal control and according to ? Ct method
# [7] = test system: HER2 high expressing cancer cells (BT-474, N87, Calu3, OE19); test: Cell growth determination test of combined use, summary over the four cell lines; assay type: cell-based, human; details: in vitro; summary of Table 1
# Protocol: (§5) Human breast cancer cell line BT-474 (ATCC (American Type Culture Collection) catalog No. HTB-20, Lasfargues E Y, In Vitro 15:723-729 (1979)), which is a passage cultured HER2 high expressing cell, was treated with trypsin and suspended in RPMI-1640 medium (GibcoInvitrogen) containing 10% bovine fetus serum (GibcoInvitrogen). The cell density of the cell suspension was measured by cell counter Sysmex CDA500, and the cell density was adjusted to 4×10^4 cell/mL using the aforementioned medium, which was dispensed to each well of a 96 well multi-well culture plate (Nunc) by 0.15 mL and cultured overnight at 37° C., 5% CO2. Thereto was added a medium containing compound A 40-200 nmol/L at a given concentration, a medium containing trastuzumab (Herceptin (trademark) (Genentech, Inc.) catalog No. NDC 50242-134-68, 79-400 ng/mL) at a given concentration, or a medium containing compound A 40-200 nmol/L and trastuzumab 79-400 ng/mL at a given concentration. […] The effect of the combined use was determined by the method of Chou T C, Talalay P Adv. […]
# (§6) HER2 high expressing human cancer cell lines, BT-474 (breast cancer), N87 (gastric cancer), Calu3 (lung cancer) and OE19 (esophageal cancer), were purchased from ATCC and used for the experiments. […] The effect of combined use was determined by the method of Chou T C, Talalay P Adv.
# Calu3 (lung cancer) = test: Cell growth determination test of combined use, Combination Index, Calu3; assay type: cell-based, human; details: combined use with compound A; Calu-3
# Protocol: as §5, §6
structure (smiles),measurement,setting,value
"O=c1[nH]cc(F)c(=O)[nH]1 [Compound 5FU, 5FU]",Combination Index at the time of inhibition of cell growth by 50%,N87 (gastric cancer),0.95
same,Combination Index at the time of inhibition of cell growth by 50%,OE19 (esophageal cancer),1.43
"CC(C)(O)CC(=O)NCCn1ccc2ncnc(Nc3ccc(Oc4cccc(C(F)(F)F)c4)c(Cl)c3)c21 [Compound A, N-{2-[4-({3-chloro-4-[3-(trifluoromethyl)phenoxy]phenyl}amino)-5H-pyrrolo[3,2-d]pyrimidin-5-yl]ethyl}-3-hydroxy-3-methylbutanamide]",Effect of combined use of compound A and trastuzumab on cell growth,"[1]; in vitro, compound A 40-200 nmol/L + trastuzumab 79-400 ng/mL, 5 days, Combination Index vs Fraction affected (FIG. 1)",synergistic effect
same,"Effect of combined use of compound A and paclitaxel on tumor volume, compared to each agent alone","[2]; paclitaxel 3 mg/mL, 4 times (FIG. 6)",stronger action
same,Effect of combined use of compound A and trastuzumab on tumor volume,"[2]; trastuzumab 1 mg/mL, 4 times, two-way analysis of variance (FIG. 2)",synergistic effect
same,Effect of combined use of compound A and erlotinib on tumor volume,"[3]; compound A 10 mg/mL and erlotinib 2 mg/mL, each 10 mL/kg orally twice a day, 14 days (FIG. 5)",synergistic effect
same,Effect of combined use of compound A and cetuximab on tumor volume,"[3]; compound A 10 mg/mL, 10 mL/kg orally twice a day, 14 days, cetuximab 2 mg/mL, 10 mL/kg intraperitoneally twice a week, 4 times (FIG. 4)",synergistic effect
same,Effect of combined use of compound A and trastuzumab on tumor volume,"[3]; compound A 10 mg/mL, 10 mL/kg orally twice a day, 14 days, trastuzumab 1 mg/mL, 10 mL/kg intraperitoneally twice a week, 4 times (FIG. 3)",synergistic effect
same,"Cell growth inhibition by combined use of compound A and fulvestrant, compared to each alone",[4],stronger cell growth inhibitory action
same,"Cell growth inhibition by combined use of compound A and fulvestrant, compared to each alone",[5],stronger cell growth inhibitory action
same,Action on HER signal,"[6]; compound A 1 μM alone or + fulvestrant 1 μM, 120 hr (FIG. 9)",HER signal blocking action
same,Effect of combined use of compound A and chemotherapeutic agents on cell growth,[7],additive effect
CC(=O)O[C@@]12CO[C@@H]1C[C@H](O)[C@@]1(C)C(=O)[C@H](O)C3=C(C)[C@@H](OC(=O)[C@H](O)[C@@H](NC(=O)OC(C)(C)C)c4ccccc4)C[C@@](O)([C@@H](OC(=O)c4ccccc4)[C@H]21)C3(C)C [docetaxel],Combination Index at the time of inhibition of cell growth by 50%,[1],1.10
same,Combination Index at the time of inhibition of cell growth by 50%,N87 (gastric cancer),0.57
same,Combination Index at the time of inhibition of cell growth by 50%,OE19 (esophageal cancer),0.94
COc1cccc2c1C(=O)c1c(O)c3c(c(O)c1C2=O)C[C@@](O)(C(=O)CO)C[C@@H]3O[C@H]1C[C@H](N)[C@H](O)[C@H](C)O1 [doxorubicin hydrochloride],Combination Index at the time of inhibition of cell growth by 50%,[1],1.65
same,Combination Index at the time of inhibition of cell growth by 50%,Calu3 (lung cancer),1.39
same,Combination Index at the time of inhibition of cell growth by 50%,OE19 (esophageal cancer),0.96
C[C@]12CC[C@@H]3c4ccc(O)cc4C[C@@H](CCCCCCCCC[S+]([O-])CCCC(F)(F)C(F)(F)F)[C@H]3[C@@H]1CC[C@@H]2O (stereo partly drawn) [fulvestrant],"HER family gene expression (EGFR, HER2, HER3, HER4), control group = 1","[6]; 1 μM, 120 hr, GAPDH as internal control (FIG. 9)",increase
CCc1c2c(nc3ccc(OC(=O)N4CCC(N5CCCCC5)CC4)cc13)-c1cc3c(c(=O)n1C2)COC(=O)[C@]3(O)CC [irinotecan hydrochloride],Combination Index at the time of inhibition of cell growth by 50%,N87 (gastric cancer),1.02
same,Combination Index at the time of inhibition of cell growth by 50%,OE19 (esophageal cancer),0.83
